Test results from patent publication EP0082385A1, “1-(3-Nitrophenyl)pyrido(2,3-d)pyrimidine-2,4(1H,3H) diones and 1-(3-nitrophenyl)quinazoline-2-4(1H,3H)diones as cutaneous medicaments” (Troponwerke GmbH & Co. KG, priority 1981, dated 1983).
Where two headings read alike, the source gives them in different places.

Key:
[1] = test system: durch Kaolin induzierten Ödems der Rattenpfote; experiment: Kaolin-induced rat paw oedema, substance applied to shorn back skin or given p.o.; format: in vivo, Ratte; conditions: for ED50: 5 h
Tachyphylaxie bei Ratten = experiment: Tachyphylaxis (loss of oedema-inhibiting effect) after repeated dosing in rats; format: in vivo
[2] = test system: Carrageenan-Pfotenödems der Ratte; experiment: Carrageenan rat paw oedema, preparations of TVX; format: in vivo
Source text: Aufbereitung von TVX - Hemmung des Carrageenan-Pfotenödems der Ratte

[3] = test system: emetische Erscheinungen beim Hund; conditions: dog, in vivo
Experimental: Die Vermeidung der Nebenwirkungen durch cutane Applikation von Verb. 1 ist nachfolgend beispielhaft für Verb. 1 beschrieben. • 1. Sowohl nach oraler als auch intramuskulärer Applikation von Verb. 1 treten bereits ab einer Dosis von etwa 0.1 mg/kg beim Hund starke emetische Erscheinungen auf. Diese emetische Wirkung beim Hund bleibt auch nach cutaner Applikation von 5 mg/kg der Substanz aus. • 2. Verb. […] Verb.

[4] = 0,3 mg/kg cutan, in Dimethylsulfoxid, rat, 5 h after oedema provocation
[5] = po, p.o., rat, read-out: DE50 (mg/kg) Kaolin-ödem p.o.

## CCn1c(=O)c2cccnc2n(-c2cccc([N+](=O)[O-])c2)c1=O [Verb. 3, 1-(3-Nitrophenyl)-3-ethylpyridoL2.3-d/pyrimidin-2,4(1H, 3H)dion]
[1]; [4]
  % Hemmung des Kaolin-ödems: 79.8%
[1]; [5]
  ED50: 0.1 mg/kg

## COC(=O)c1ccccc1O [Salicyclsäuremethylester, Salicylsäuremethylester, reference compound]
[1]; solvent alone (without Verb. 1), cutan, rat
  % Hemmung des Kaolin-ödems: 39.4) %

## O=c1c2ccccc2n(-c2cccc([N+](=O)[O-])c2)c(=O)n1CCF [Verb. 2, 1-(3-Nitrophenyl)-3-(2-fluorethyl)-chinazolin-2,4(1H, 3H)dion]
[1]; [4]
  % Hemmung des Kaolin-ödems: 56.0%
[1]; [5]
  ED50: 0.2 mg/kg

## CCn1c(=O)c2ccccc2n(-c2cccc([N+](=O)[O-])c2)c1=O [Verb. 1, 1-(3-Nitrophenyl)-3-ethylchinazolin-2.4(1H, 3H)-dion]
Tachyphylaxie bei Ratten; 6 days topical pretreatment, in Dimethylsulfoxid, 0.3 mg/kg/Tag
  ödemhemmende Wirkung nach topischer Vorbehandlung: eindeutige ödemhemmende Wirkung
Tachyphylaxie bei Ratten; cutaneous application
  Wirkungsverlust (Tachyphylaxie): vollständig vermieden
Tachyphylaxie bei Ratten; oral doses over several days, seen after three to four days
  Tachyphylaxie: deutliche Tachyphylaxie
[1]; 0,3 mg/kg cutan, in Cremophor, rat, n = 5
  % Hemmung des Kaolin-ödems: 14.2%
[1]; 0,3 mg/kg cutan, in Dimethylacetamid, rat, n = 5
  % Hemmung des Kaolin-ödems: 50.5%
[1]; 0,3 mg/kg cutan, in Dimethylformamid, rat, n = 5
  % Hemmung des Kaolin-ödems: 35.0%
[1]; [4]
  % Hemmung des Kaolin-ödems: 48.3%
[1]; 0,3 mg/kg cutan, in Erdnußöl, rat, n = 5
  % Hemmung des Kaolin-ödems: 16.7%
[1]; 0,3 mg/kg cutan, in Lutrol, rat, n = 5
  % Hemmung des Kaolin-ödems: 18.3%
[1]; 0,3 mg/kg cutan, in N-Methylpyrrolidon, rat, n = 5
  % Hemmung des Kaolin-ödems: 63.2%
[1]; 0,3 mg/kg cutan, in Ricinusöl, rat, n = 5
  % Hemmung des Kaolin-ödems: 14.2%
[1]; 0,3 mg/kg cutan, in Salicylsäuremethylester, rat, n = 5
  % Hemmung des Kaolin-ödems: 77.1%
[1]; Rattus norvegicus, topical, cutan in Dimethylsulfoxid, same antiphlogistic effect as 0,3 mg/kg oral, read-out: DE50 nach cutaner Applikation in Dimethylsulfoxid
  ED50: 0.3 mg/kg
[1]; [5]
  ED50: 0.3 mg/kg
[2]; preparation: TVX 0.03, Aceton 6.97, IPM 3.00 (total 10.00)
  % Hemmung: 51.3%
[2]; preparation: TVX 0.03, Aceton 9.97 (total 10.00)
  % Hemmung: 41.7%
[2]; preparation: TVX 0.03, Essigsäureethylester 6.97, IPM 3.00 (total 10.00)
  % Hemmung: 64.1%
[2]; preparation: TVX 0.03, Essigsäureethylester 9.97 (total 10.00)
  % Hemmung: 31.0%
[2]; preparation: TVX 0.03, IPM 3.00, Tween 2.00, Isopropanol 4.97 (total 10.00)
  % Hemmung: 55.1%
[2]; preparation: TVX 0.03, Milchsäureethylester 6.97, IPM 3.00 (total 10.00)
  % Hemmung: 50.6%
[2]; preparation: TVX 0.03, Milchsäureethylester 9.97 (total 10.00)
  % Hemmung: 42.0%
[2]; preparation: TVX 0.03, Tween 0.50, Dowanol DPM 9.47 (total 10.00)
  % Hemmung: 62.7%
[3]
  Dosis, ab der emetische Wirkung auftritt: > 5 mg/kg
  Dosis, ab der starke emetische Erscheinungen auftreten: ~0.1 mg/kg
